Each structure is given as a SMILES string. “And” between values parts separate entries of the source, which are not always exact repeats. Equal values may be shown once. Read-outs that look alike come from different tables or passages of the source.

The values below come from patent US11091462B2, “(Hetero)arylamide compound for inhibiting protein kinase activity” (Shenzhen TargetRx, Inc., priority 2017, dated 2021).

Data set [1] can be described thus: Pharmacokinetic experiment in rats. The settings on record: for AUC(0-t) / Vd / Cmax / MRT inf: male, Sprague-Dawley, rat, plasma; for Vd: read-out: Vz—pred; for F: oral 20 mg/kg vs IV 2 mg/kg; for MRT inf: read-out: MRTINF—pred. Details: Cl—pred: unit not given here. It counts as in vivo, Sprague-Dawley rats. As for the experimental part: 9 Male Sprague-Dawley rats, 7-8 weeks old, weighted 210 g, divided into 3 groups with 3 rats in each group, were intravenously (2 mg/kg) or orally (20 mg/kg) given a single dose of compound, and differences in pharmacokinetics of the rats were compared.
Rats were fed with a standard diet and water. Fasting began 16 hours before the test. The drugs were dissolved in PEG400 and dimethyl sulfoxide. Blood was collected from the eyelids at a time point of 0.083 hour, 0.25 hour, 0.5 hour, 1 hour, 2 hours, 4 hours, 6 hours, 8 hours, 12 hours, and 24 hours after administration.
Rats were briefly anesthetized after inhalation of ether, and 300 μL of blood samples were collected from the eyelids to test tubes. There was 30 μL of 1% heparin salt solution in the test tube. The tubes were dried overnight at 60° C. before use. After the blood sample was collected at the last time point, rats were anesthetized with ether and sacrificed.
Immediately after the collection, blood samples were sufficiently mixed by gently inverting the tube at least 5 times, and were placed on ice. Blood samples were centrifuged at 5000 rpm for 5 minutes at 4° C. to separate plasma from red blood cells. 100 μL of the plasma was pipetted into a clean plastic centrifuge tube, marking the name of the compound and collecting time. Plasma was stored at −80° C. prior to analysis. The concentration of the compounds disclosed herein in plasma was determined by LC-MS/MS. Pharmacokinetic parameters were calculated based on drug concentrations in plasma of each animal at different time points.

In another data set the test system is Ba/F3 parent cells. Kind of data set: Cytotoxicity experiment, Ba/F3 parent cells (CellTiter-Glo). It counts as cell-based. The settings on record: Mus musculus, BaF3, 72 h; Ba/F3 parent cells with 8 ng/ml IL-3, 3 days. As for the experimental part: (§1) Example 13: Cytotoxicity Experiment
(§2) The inhibitory effect of the Example compounds on the activity of Ba/F3 parent cell, Ba/F3 Bcr-Abl^T315I cell was examined.
(§3) 1. Preparation of cell plate: Ba/F3 parental cells, Ba/F3 Bcr-Abl^T315I cells were seeded in 96-well plates, and 8 ng/ml IL-3 was added to Ba/F3 parental cells. The cell plates were placed in carbon dioxide culture and incubated overnight.
(§4) 2. Preparation of test compounds: The test compounds were dissolved in DMSO and subjected to a 3.16-fold gradient dilution in triplicate, 9 concentrations were obtained, starting from the concentration of 10 μM.
(§5) 3. Treatment of Cells with compounds: Compounds at various concentrations were transferred to cell plates. The cell plates were incubated in a carbon dioxide incubator for 3 days.
(§6) 4. Detection: CellTiter-Glo4 reagent was added to the cell plates, which were incubated for 30 minutes at room temperature to stabilize the luminescence signal. Readings were performed using a PerkinElmer Envision multi-label analyzer.

The target in data set [2] is T1, Ba/F3 Bcr-Abl^T315I cells (Homo sapiens, UniProt P00519, T315I, cells depend on it).
T1 construct: Ba/F3 Bcr-Abl1^T315I IC50; other: Ba/F3 Bcr-Abl T315I cells, 3 days; fused on or other part: P11274 (Breakpoint cluster region protein)
Kind of data set: Cytotoxicity experiment, Ba/F3 Bcr-Abl T315I cells (CellTiter-Glo). The data set is classed as cell-based. Conditions: 3 days, read-out: Ba/F3 Bcr-Abl1^T315I IC50. As for the experimental part: as §1, §2, §3, §4, §5, §6
(Cellular ATP, detected with luciferase, serves as a proxy for viable cell number.)

Data set [3] is classed as in vivo. Conditions: 15 mg/kg twice a day.
In data set [4] the test system is BA/F3 (BCR-ABL^T315I) cells. The data set is described as follows: Pharmacodynamic evaluation in BA/F3 (BCR-ABL T315I) subcutaneous tumor model. The settings on record: 15 mg/kg twice a day. It counts as in vivo, NOD/SCID mice. As to the method: Feeding environment: SPF level.
Each NOD/SCID mouse was subcutaneously inoculated with 5×10^6 BA/F3 (BCR-ABL^T315I) cells in the right dorsal area, wherein the cells were resuspended in PBS (0.1 ml/mouse), to establish a subcutaneous tumor model. […] The efficacy was evaluated according to the relative tumor growth inhibition rate (TGI), and the safety evaluation was performed according to the body weight changes and deaths of the animals.
The experimental protocols for animal experiment disclosed herein were reviewed and approved by the CrownBio IACUC committee. During the experiment, the procedures of the animal experiment were carried out according to the requirements of AAALAC. After tumor inoculation, the effects of tumor growth and treatment on normal animal behavior were routinely monitored, including experimental animal activity, feeding and drinking, weight gain or loss, eye, hair and other abnormalities. Abnormal clinical symptoms observed during the experiment were recorded in the raw data. Mice body weight and tumor size were measured and recorded three times per week during the experiment. The mice were weighed before each administration and administered according to the weight thereof.
Relative tumor growth inhibition rate TGI (%):
T/C % is the relative tumor proliferation rate, that is, the percentage of tumor volume or tumor weight of the treatment group and the control group at a certain time point. T and C are the relative tumor volume (RTV) or tumor weight (TW) of the treatment group and the control group at a specific time point, respectively.
All experimental results were expressed as mean±standard error (x±s), and the significant difference of the tumor volume at 12 days after grouping between the control group and each treatment group was evaluated with one-way ANOVA, and significant difference of the tumor volume between the control group and each treatment group or between each treatment group was evaluated using Games-Howell (heterogeneity of variance), p<0.05 was considered to be significant.

By AUC(0-t) is commonly meant the area under the concentration-time curve up to a stated or last time point. As a reminder, the Cmax is the highest concentration seen after dosing. Take `O=C(Nc1ccc(OC(F)(F)Cl)cc1)c1cnc(N2CC[C@@H](O)C2)c(-c2ccn[nH]2)c1` [ABL-001, (R)—N-(4-(chlorodifluoromethoxy)phenyl)-6-(3-hydroxypyrrolidin-1-yl)-5-(1H-pyrazol-5-yl)nicotinamide, reference compound]: in data set [1] (PO 20 mg/kg single dose), the “Vz—pred” value is on record as 5.14 L/kg, the AUC(0-t) worked out at 13700 ng·h/mL and the peak level (Cmax) was 1770 ng/mL. Besides, in data set [1] (IV 2 mg/kg single dose), the AUC(0-t) is 6900 ng·h/mL and the Vd is 0.54 L/kg. For the same compound, the F in data set [1] is recorded as 19.86%.

Usually IC50 stands for the concentration that inhibits the measured activity by half. With `O=C(Nc1ccc(OC(F)(F)Cl)cc1)c1cnc(N2CC[C@@H](O)C2)c(-c2nccnn2)c1` [Example 6, (R)-6-(3-hydroxypyrrolidin-1-yl)-5-(1,2,4-triazin-3-yl)-N-(4-(chlorodifluoromethoxy)phenyl)nicotinamide], the IC50 in the data set with Ba/F3 parent cells was over 1000 nM. The GI50 in data set [2] was over 1000 nM.

In the case of `O=C(Nc1ccc(OC(F)(F)Cl)cc1)c1cnc(N2CC[C@@H](O)C2)c(-c2cncnn2)c1` [Example 5, (R)-6-(3-hydroxypyrrolidin-1-yl)-5-(1,2,4-triazin-6-yl)-N-(4-(chlorodifluoromethoxy)phenyl)nicotinamide], the IC50 in the data set on Ba/F3 parent cells is over 1000 nM. The GI50 in data set [2] was in the range of 100 to 500 nM.

Consider `O=C(Nc1ccc(OC(F)(F)Cl)cc1)c1cnc(N2CC[C@@H](O)C2)c(-c2ccnnc2)c1` [Example 3, (R)-6-(3-hydroxypyrrolidin-1-yl)-5-(pyridazine-4-yl)-N-(4-(chlorodifluoromethoxy)phenyl)nicotinamide], for which the IC50 in the data set with Ba/F3 parent cells was over 1000 nM. The GI50 in data set [2] was 500 to 1000 nM.

For the compound `Nc1ncc(-c2cc(C(=O)Nc3ccc(OC(F)(F)Cl)cc3)cnc2N2CC[C@@H](O)C2)nn1` [Example 4, (R)-6-(3-hydroxypyrrolidin-1-yl)-5-(3-amino-1,2,4-triazin-6-yl)-N-(4-(chlorodifluoromethoxy)phenyl)nicotinamide], the IC50 with Ba/F3 parent cells is over 1000 nM. For the same compound, the GI50 in data set [2] lay in the range of 100 to 500 nM.

With `O=C(Nc1ccc(OC(F)(F)Cl)cc1)c1cnc(N2CC[C@@H](F)C2)c(-c2cnccn2)c1` [Example 7, (R)-6-(3-fluoropyrrolidin-1-yl)-5-(pyrazin-2-yl)-N-(4-(chlorodifluoromethoxy)phenyl)nicotinamide], the IC50 with Ba/F3 parent cells is over 1000 nM. In addition, the “Cl—pred” value in data set [1] (IV 2 mg/kg single dose) is listed as 0.54; in data set [1] (PO 20 mg/kg single dose) it was 0.90. Further, in data set [1] (PO 20 mg/kg single dose), the “Vz—pred” value turned out to be 2.52 L/kg. In addition, the AUC(0-t) in data set [1] (IV 2 mg/kg single dose) is 3740 ng·h/mL; in data set [1] (PO 20 mg/kg single dose), 23100 ng·h/mL. Also, the values for the Cmax in data set [1] (IV 2 mg/kg single dose) and in data set [1] (PO 20 mg/kg single dose) were 4510 ng/mL and 2370 ng/mL, respectively. The MRT inf in data set [1] (IV 2 mg/kg single dose) stood at 1.14 h; in data set [1] (PO 20 mg/kg single dose), 5.43 h. Also, the Vd in data set [1] (IV 2 mg/kg single dose) turned out to be 0.79 L/kg. The F in data set [1] turned out to be 61.95%. Besides, the “average body weight of the mice increased by” value in data set [3] (at day 22 after grouping) is 1.3%. Also, the “decrease in the body weight of mice during the experiment” value in data set [3] (during the experiment) is “no mouse in the Example 7 15 mg/kg group had a decrease in the body weight”. For the same compound, the GI50 in data set [2] was at most 100 nM. Besides, the “Tumor volume (x ± S)” value was 175 ± 17 mm^3 in data set [4] (at day 2 after grouping); 237 ± 27 mm^3 in data set [4] (at day 5 after grouping); 432 ± 24 mm^3 in data set [4] (at day 8 after grouping); 590 ± 51 mm^3 in data set [4] (at day 10 after grouping); 790 ± 64 mm^3 in data set [4] (at day 12 after grouping); 1145 mm^3 and 1145 ± 116 mm^3 in data set [4] (at day 15 after grouping). Further, the “Tumor volume (x ± S)” value in data set [4] (at day 17 after grouping) is 1532 ± 129 mm^3; in data set [4] (at day 19 after grouping), 1761 ± 212 mm^3; in data set [4] (at day 22 after grouping), 2216 ± 126 mm^3; in data set [4] (at the day of grouping), 160 ± 11 mm^3. Further, the “relative tumor growth inhibition rate TGI” value in data set [4] (at day 15 after grouping) is recorded as 53.1%.

As to `O=C(Nc1ccc(OC(F)(F)Cl)cc1)c1cnc(N2CC[C@@H](O)C2)c(-c2cccnn2)c1` [Example 2, (R)-6-(3-hydroxypyrrolidin-1-yl)-5-(pyridazine-3-yl)-N-(4-(chlorodifluoromethoxy)phenyl)nicotinamide], the IC50 in the data set on Ba/F3 parent cells is over 1000 nM. The GI50 in data set [2] lay in the range of 100 to 500 nM.

As for `O=C(Nc1ccc(OC(F)(F)Cl)cc1)c1cnc(N2CC[C@@H](O)C2)c(-c2cnccn2)c1` [Example 1, (R)-6-(3-hydroxypyrrolidin-1-yl)-5-(pyrazin-2-yl)-N-(4-(chlorodifluoromethoxy)phenyl)nicotinamide], the IC50 with Ba/F3 parent cells was over 1000 nM. For the same compound, in data set [1] (IV 2 mg/kg single dose), the “Cl—pred” value turned out to be 0.35, the AUC(0-t) stood at 5700 ng·h/mL, the Cmax was 4820 ng/mL and the MRT inf amounted to 1.37 h. In data set [1] (IV 2 mg/kg single dose), the Vd was 0.7 L/kg. In data set [1] (PO 20 mg/kg single dose), the “Cl—pred” value amounted to 0.54, the “Vz—pred” value is reported as 1.68 L/kg, the AUC(0-t) turned out to be 38000 ng·h/mL and the concentration peaked (Cmax) at 4330 ng/mL. Besides, in data set [1] (PO 20 mg/kg single dose), the MRT inf was found to be 5.43 h. The compound further gave a F in data set [1] of 66.68%. The GI50 in data set [2] is at most 100 nM.
